# Like-named read-outs stand apart in the source and are kept apart here.
# Tests used:
# [1] = system: liver of rats; settings: cited from earlier work
# [2] = system: livers from treated male Sprague-Dawley rats
# Experimental: Briefly, in vivo short-term repeat dose rat studies were conducted on over 580 test compounds, including marketed and withdrawn drugs, environmental and industrial toxicants, and standard biochemical reagents. Rats (three per group) were dosed daily at either a low or high dose. […] Animals were necropsied on days 0.25, 1, 3, and 5 or 7. Up to 13 tissues (e.g., liver, kidney, heart, bone marrow, blood, spleen, brain, intestine, glandular and nonglandular stomach, lung, muscle, and gonads) were collected for histopathological evaluation and microarray expression profiling on the Amersham CodeLink™ RU1 platform (also referred to herein as “CodeLink Uniset™ Rat 1 Bioarray”). In addition, a clinical pathology panel consisting of 37 clinical chemistry and hematology parameters was generated from blood samples collected on days 3 and 5.
# The remaining 21 NGTC chemicals and 26 NC chemicals were reserved for independent validation of the signature. Each chemical was evaluated in a short term repeat dose in vivo study in male Sprague-Dawley rats (n=3/group). The livers from treated and control rats were collected after 1, 3 and 5 days of dosing and RNA was extracted for gene expression profiling. Gene expression changes in treated animals were compared to suitably matched controls and represented as average log10 ratios for each treatment group. Since the development of tumors is a long term multi-step process, the 100 training set chemicals were profiled at the latest time point in order to capture gene expression changes that were likely to be reflective of repeat dose treatment effects that contribute to carcinogenicity and not reflective of an initial stimulus following a single dose that may be transient in nature.
# Male Sprague-Dawley (Crl:CD®(SD)(IGS)BR) rats (weight matched, 7 to 8 weeks of age and averaging 200 to 250 g) were purchased from Charles River Laboratories (Portage, Mich.) and housed individually in hanging, stainless steel, wire-bottom cages in a temperature (66-77° F.), light (12-hour dark/light cycle) and humidity (30-70%) controlled room. […] Housing and treatment of the animals were in accordance with regulations outlined in the USDA Animal Welfare Act (9 CFR Parts 1, 2 and 3). Animals were assigned to groups such that mean body weights were within 10% of the mean vehicle control group. Test articles were administered either orally (10 ml of corn oil/kg body weight) or by intra-peritoneal injection (5 ml of saline/kg body weight), as indicated. Animals were dosed once daily starting on day 0, and necropsied 24 hrs after the last dose, as indicated. An equivalent number of time- and vehicle-matched control rats were treated concurrently.
# Briefly, liver samples from 3 rats were chosen from each treatment and control group for gene expression analysis on the Codelink Uniset™ Rat 1 Bioarray (GE Healthcare Bio-Sciences Corp., Piscataway, N.J.). A complete list of probes on the array is provided on the Amersham Biosciences web site (www.amershambiosciences.com). Log transformed signal data for all probes were array-wise normalized used Array Qualifier (Novation Biosciences, Palo Alto, Calif.), a non-linear centralization normalization procedure adapted for the CodeLink microarray platform. Log10 ratios for each experimental group are computed as the difference between the average of the logs of the normalized experimental signals and the average of the logs of the normalized control signals for each gene.
# where S is the scalar product and b is the bias term. Evaluation of S for a test experiment across the n genes in the signature determines what side of the hyperplane in m dimensional space the test experiment lies, and thus the result of the classification. Experiments with scalar products greater than 0 are considered positive for non-genotoxic hepatocarcinogenicity.
# [3] = test chemicals, literature class NGTC or NC
# [4] = 37 gene signature, maximum scalar product over days 1, 3 and 5, scalar product greater than zero = positive
# [5] = maximum of days 1, 3, 5, greater than zero = classified non-genotoxic hepatocarcinogen
# [6] = male, Sprague-Dawley, rat, in vivo
smiles,measurement,setting,value
"ClC(Cl)(Cl)Cl [carbon tetrachloride, reference compound]",Class,[1]; [3],NGTC
same,signature prediction for non-genotoxic hepatocarcinogenicity,[2]; [4],positive
same,Max (maximum scalar product observed over the multiple time points),[2]; [5],0.50
CC[C@H](C)C(=O)O[C@H]1C[C@@H](C)C=C2C=C[C@H](C)[C@H](CC[C@@H]3C[C@@H](O)CC(=O)O3)[C@H]21 [LOVASTATIN],Class,[1]; [3],NGTC
same,Max (maximum scalar product observed over the multiple time points),[2]; [6],1.07
COC(=O)Nc1nc2ccc([S+]([O-])c3ccccc3)cc2[nH]1 (centres unmarked) [OXFENDAZOLE],Class,[1]; [3],NGTC
same,Max (maximum scalar product observed over the multiple time points),[2]; [6],0.32
"CC(=O)Nc1ccc2c(c1)Cc1ccccc1-2 [2-acetylaminofluorene, reference compound]",Class,[1]; genotoxic hepatocarcinogens section,GTC
same,signature prediction for non-genotoxic hepatocarcinogenicity,[2]; [4],weakly positive
same,scalar product (SP),"[2]; 37 gene signature, maximum scalar product over the time points",0.03
same,Max (maximum scalar product observed over the multiple time points),[2]; [5],0.03
"NN [hydrazine, reference compound]",Class,"[1]; rat, in vivo",GTC
same,Day 1 (scalar product),"[2]; male, rat, in vivo",−0.10
same,Day 3 (scalar product),"[2]; male, rat, in vivo",−1.31
same,Day 5 (scalar product),"[2]; male, rat, in vivo",−1.48
same,Max (maximum scalar product observed over the multiple time points),"[2]; male, rat, in vivo",−0.10
same,signature prediction for non-genotoxic hepatocarcinogenicity,"[2]; rat, in vivo",negative
CCCCC(CC)COC(=O)c1ccccc1C(=O)OCC(CC)CCCC (centres unmarked) [BIS(2-ETHYLHEXYL)PHTHALATE],Class,"[1]; rat, in vivo",NGTC
same,Day 1 (scalar product),"[2]; rat, in vivo",0.47
same,Day 3 (scalar product),"[2]; rat, in vivo",1.04
same,Day 5 (scalar product),"[2]; rat, in vivo",−0.09
same,Max (maximum scalar product observed over the multiple time points),"[2]; rat, in vivo",1.04
"ClC(Cl)Cl [chloroform, reference compound]",Class,"[1]; rat, in vivo",NGTC
same,Day 1 (scalar product),"[2]; male, rat, in vivo",1.50
same,Day 3 (scalar product),"[2]; male, rat, in vivo",0.74
same,Day 5 (scalar product),"[2]; male, rat, in vivo",0.27
same,Max (maximum scalar product observed over the multiple time points),"[2]; male, rat, in vivo",1.50
OC(Cn1cncn1)(Cn1cncn1)c1ccc(F)cc1F [FLUCONAZOLE],Class,[1]; [3],NGTC
same,Max (maximum scalar product observed over the multiple time points),[2]; [6],3.63
C[C@]12CC[C@H]3[C@@H](CCC4=CC(=O)CC[C@@]43C)[C@@H]1CC[C@@H]2O [TESTOSTERONE],Class,"[1]; rat, in vivo",NGTC
same,Day 1 (scalar product),"[2]; male, rat, in vivo",0.25
same,Day 3 (scalar product),"[2]; male, rat, in vivo",0.45
same,Day 5 (scalar product),"[2]; male, rat, in vivo",−0.63
same,Max (maximum scalar product observed over the multiple time points),"[2]; male, rat, in vivo",0.45
CC(C)(Oc1ccc(CCNC(=O)c2ccc(Cl)cc2)cc1)C(=O)O [BEZAFIBRATE],Class,[1]; [3],NGTC
same,Max (maximum scalar product observed over the multiple time points),[2]; [6],2.72
C[C@]12Cc3c[nH]nc3C[C@@H]1CC[C@@H]1[C@@H]2CC[C@@]2(C)[C@H]1CC[C@]2(C)O [STANOZOLOL],Class,[1]; [3],NGTC
same,Max (maximum scalar product observed over the multiple time points),[2]; [5],0.54
"CCN(CC)N=O [N-nitrosodiethylamine, reference compound]",Class,"[1]; rat, in vivo",GTC
same,Day 1 (scalar product),"[2]; male, rat, in vivo",−2.17
same,Day 3 (scalar product),"[2]; male, rat, in vivo",−1.83
same,Day 5 (scalar product),"[2]; male, rat, in vivo",−1.41
same,Max (maximum scalar product observed over the multiple time points),"[2]; male, rat, in vivo",−1.41
same,signature prediction for non-genotoxic hepatocarcinogenicity,"[2]; rat, in vivo",negative
CC/C(=C(/CC)c1ccc(O)cc1)c1ccc(O)cc1 [DIETHYLSTILBESTROL],Class,[1]; [3],NGTC
same,Max (maximum scalar product observed over the multiple time points),[2]; [6],2.75
COC(=O)Nc1nc2ccc(Sc3ccccc3)cc2[nH]1 [FENBENDAZOLE],Class,[1]; [3],NGTC
same,Max (maximum scalar product observed over the multiple time points),[2]; [5],0.17
CC(=O)O[C@]1(C(C)=O)CC[C@H]2[C@@H]3C=C(Cl)C4=CC(=O)[C@@H]5C[C@@H]5[C@]4(C)[C@H]3CC[C@@]21C [CYPROTERONE ACETATE],Class,[1]; [3],NGTC
same,Max (maximum scalar product observed over the multiple time points),[2]; [6],1.16

# Source: patent publication US20100021885A1, “REAGENT SETS AND GENE SIGNATURES FOR NON-GENOTOXIC HEPATOCARCINOGENICITY” (priority 2006, published 2010)
